The record followed here is PubChem BioAssay (NCI).

Assay in all cases: NCI-60 cell line screen, 48 h
For assay [1], the system named is SF-295 CNS.
Assay [2] concerns UACC-62 melanoma.
Assay [3] relates to OVCAR-8 ovarian.
In assay [4] the test system is 786-0 renal.
Assay [5] deals with SK-MEL-5 melanoma.
The subject of assay [6] is NCI-H522 lung.
The subject of assay [7] is DU-145 prostate.
The test system of assay [8] is BT-549 breast.
Assay [9] concerns SK-MEL-2 melanoma.
The test system of assay [10] is HOP-62 NSCLC.

SMILES strings stand for the structures.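 In this assay, cells in 96-well plates receive the compound at five concentrations for 48 hours. Endpoints are linearly interpolated between the surrounding concentrations. GI50 = concentration required for 50% inhibition of growth. The concentration for full growth arrest is given as TGI.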 Where only a bound is given, the exact number is not on record here.

`CC(C)(C)[OH+][O-].[O-]c1ccc(Cl)cc1C=Nc1ccc(Cl)cc1[O-].[O]=[V]`: the GI50 in assay [1] was 10.7 µM; in assay [2], 10.7 µM; in assay [3] it was 23 µM; in [4] it was 3.73 µM; in [5] it was 13 µM; in assay [6], 9.12 µM. In addition, the GI50 in [7] is 16.5 µM; in assay [8] it was 13.2 µM; in assay [9], 11.5 µM; in [10], 23.7 µM. Moreover, the TGI was 33.5 µM in assay [1]; 37.5 µM in [2]; more than 100 µM in [3]; 27.1 µM in [4]; 26.3 µM in assay [5]; 25.1 µM in [6]. The TGI in assay [7] is 54.2 µM; in assay [8] it was 28.6 µM; in assay [9], 28.2 µM; in assay [10] it was 74.1 µM.

Regarding `CC(C)C[C@H](NC(=O)[C@H](Cc1ccccc1)n1ccc(N2CCCCC2)cc1=O)B(O)O`, the GI50 in assay [1] is 0.585 µM; in [2], 0.458 µM; in assay [3] it was 3.64 µM; in assay [4], 0.825 µM; in assay [5], 0.367 µM; in [6], 0.305 µM. For the same compound, the GI50 in assay [7] was 0.706 µM; in assay [8], 0.364 µM; in assay [9], 0.46 µM; in [10], 2.63 µM. Besides, the TGI in [1] is 4.51 µM; in assay [2], 2.44 µM; in assay [3], more than 100 µM; in assay [4], more than 100 µM; in assay [5], 3.11 µM; in assay [6] it was 2.25 µM. In addition, the TGI is more than 100 µM in assay [7], 4.32 µM in assay [8], 4.56 µM in assay [9] and 9.29 µM in [10].

Take `O=C1/C(=C/c2cccc([N+](=O)[O-])c2)COc2ccc(O)c(O)c21`: the GI50 in assay [1] was 3.27 µM; in assay [2], 1.57 µM; in assay [3], 2.35 µM; in assay [4], 1.35 µM; in assay [5] it was 1.55 µM; in [6], 0.281 µM. For the same compound, the GI50 in assay [7] was 1.9 µM; in assay [8], 2.42 µM; in [9] it was 2 µM; in assay [10], 1.93 µM. In addition, the TGI in [1] came to 11.2 µM; in assay [2], 2.98 µM; in assay [3], 13.3 µM; in [4], 2.85 µM; in [5] it was 2.95 µM; in assay [6], 1.36 µM. Also, the TGI in [7] came to 4.39 µM; in assay [8] it was 4.84 µM; in [9], 4.35 µM; in assay [10] it was 4.62 µM.

For `Cc1ccc(NC(c2ccccc2)c2ccc3cccnc3c2O)cc1` (centres undefined), the TGI in assay [1] was 16.1 µM; in [2] it was 18.3 µM; in assay [3] it was 11.1 µM; in assay [4], 15.1 µM; in assay [5], 15.4 µM; in assay [6] it was 8.53 µM. For the same compound, the TGI amounted to 23.4 µM in assay [7], 15.3 µM in [8], 21 µM in [9] and 19.9 µM in assay [10].

Take `O=C(/C=C/c1ccco1)c1ccc(Nc2nc(Nc3ccc(F)cc3)nc(Nc3ccc(Cl)cc3)n2)cc1`: the GI50 in assay [2] is more than 37.4 µM; in assay [3], 18.3 µM; in assay [4], more than 34.3 µM; in assay [5] it was 23.7 µM; in assay [6] it was 31.1 µM; in assay [7], 30.9 µM. Further, the GI50 in assay [8] is 2.23 µM; in assay [9] it was more than 49.8 µM; in assay [10], more than 50 µM. Besides, the TGI in assay [2] is more than 59.5 µM; in assay [3], 57.3 µM; in assay [4] it was more than 49.4 µM; in assay [5], more than 100 µM; in assay [6], more than 100 µM; in [7], more than 74.7 µM. Further, the TGI is more than 29.6 µM in assay [8], more than 100 µM in assay [9] and more than 87.1 µM in assay [10].

Regarding `Cc1ccc(Nc2nc(NCCO)c3ccccc3n2)cc1C`, the GI50 in [1] is 4.37 µM; in assay [2], 12.1 µM; in assay [3], 5.44 µM; in assay [4], 6.94 µM; in assay [5], 2.78 µM; in [6], 4.68 µM. The GI50 in [7] is 10.3 µM; in [8], 11.5 µM; in [9] it was 11.3 µM; in assay [10], 10.7 µM. Also, the TGI came out at 17.5 µM in [1]; 25.3 µM in assay [2]; 25.9 µM in [3]; 20.1 µM in assay [4]; 10.5 µM in assay [5]; 18 µM in assay [6]. The TGI worked out at 22 µM in assay [7], 23.6 µM in [8], 24 µM in assay [9] and 24.1 µM in assay [10].

As to `Cn1ccnc1C(=O)/C=C/c1ccc(CC(=O)Nc2ccc(Cl)cc2)cc1`, the GI50 in assay [1] is 7.39 µM; in assay [2] it was 6.5 µM; in assay [3], 3.49 µM; in assay [4], 1.6 µM; in assay [5], 14.4 µM; in assay [6] it was 4.85 µM. Moreover, the GI50 in [7] was 1.42 µM; in [8], 3.53 µM; in assay [9], more than 25 µM; in [10] it was 2.16 µM. Also, the TGI in [1], in assay [2], in assay [3], in assay [4], in [5] and in assay [6] was more than 25 µM each time. Moreover, the TGI in assay [7], in assay [8], in assay [9] and in assay [10] was more than 25 µM each time.

For `C[Si](C)(C)C#CCO[Si](C)(C)C`, the TGI was more than 100 µM in assay [1]; more than 100 µM in assay [2]; more than 100 µM in assay [3]; more than 78.8 µM in [4]; more than 100 µM in assay [5]; 29.9 µM in assay [6]. In addition, the TGI in assay [7], in assay [8], in [9] and in assay [10] was more than 100 µM each time.

On to `O=C1OC(c2ccco2)=N/C1=C\c1ccc(Cl)c(Cl)c1`, for which the TGI in [1], in assay [2], in assay [3], in [4], in assay [5] and in assay [6] was more than 100 µM throughout. Moreover, the TGI was more than 100 µM in assay [7], more than 100 µM in [8], more than 100 µM in [9] and 94.6 µM in [10].

With `C=C1C(=O)O[C@@H]2C[C@@H]1CC[C@]1(C)O[C@H]1CC[C@@]1(C)O[C@@H]1CC[C@@]2(C)O`, the GI50 in [1] is 26.7 µM; in assay [2], 42 µM; in assay [3], 30.7 µM; in assay [4], 27.7 µM; in assay [5] it was 14 µM; in assay [6] it was 19.1 µM. In addition, the GI50 was 35 µM in assay [7], 31.9 µM in [8], 50.1 µM in [9] and 75.8 µM in assay [10]. The TGI in assay [1] was 75.7 µM; in assay [2], more than 100 µM; in assay [3], more than 100 µM; in assay [4], 89.9 µM; in assay [5], 34.8 µM; in assay [6] it was 46.2 µM. Moreover, the TGI in assay [7] was more than 100 µM; in [8], 89.5 µM; in assay [9] it was more than 100 µM; in [10] it was more than 100 µM.

Turning to `CN(C)CCNC(=O)c1ccc(Nc2nc3ccccc3c3occc23)cc1`, the GI50 in assay [1] is 1.88 µM; in assay [2] it was 1.35 µM; in [3], 2.08 µM; in [4], 2.57 µM; in assay [5], 3.96 µM; in assay [6] it was 13.3 µM. For the same compound, the GI50 in assay [7] was 6.94 µM; in [8] it was 5.69 µM; in assay [9], 9.71 µM; in [10], 3.35 µM. Also, the TGI in assay [1] was 4.18 µM; in assay [2], 2.71 µM; in assay [3], 7.96 µM; in assay [4] it was 6.8 µM; in [5], 14 µM; in assay [6], 29.8 µM. The TGI in assay [7] came out at 20.7 µM; in assay [8], 23.9 µM; in [9], 26.6 µM; in [10], 8.16 µM.

As to `O=C1c2ccccc2-c2c1c1ccccc1c(=O)n2Cc1ccco1`, the TGI in [1], in assay [2], in assay [3], in assay [4], in assay [5] and in assay [6] was more than 100 µM in each case. Besides, the TGI in [7], in [8], in assay [9] and in assay [10] was more than 100 µM each time.

For the compound `O=C(Nc1ccc(Cl)c([N+](=O)[O-])c1)Nc1nc2ccccc2s1`, the GI50 in [1] is 2.01 µM; in assay [2], 4.05 µM; in assay [3], 3.33 µM; in assay [4] it was 10.3 µM; in assay [5], 1.88 µM; in assay [6], 2.44 µM. Besides, the GI50 in assay [7] is 4.22 µM; in [8], 16.4 µM; in [9] it was 2.37 µM; in assay [10] it was 3.21 µM. Further, the TGI was 5.41 µM in [1]; 18 µM in assay [2]; 17.7 µM in [3]; 26.8 µM in assay [4]; 4.17 µM in [5]; 7.33 µM in assay [6]. Further, the TGI in assay [7] is 14.6 µM; in assay [8], 44.7 µM; in assay [9] it was 5.32 µM; in assay [10], 12 µM.

Turning to `COc1ccc(-c2ccc(C3CC(c4ccc(O)cc4)=NN3)o2)c([N+](=O)[O-])c1` (centres undefined), the GI50 in [1] is 29.9 µM; in assay [2] it was 33.1 µM; in assay [3] it was 42.8 µM; in assay [4], 45.1 µM; in assay [6], 39 µM; in [7] it was 29.4 µM. Besides, the GI50 was 32.8 µM in [8] and 34 µM in assay [10]. Further, the TGI in assay [1], in assay [2], in [3], in assay [4], in [6] and in [7] was more than 100 µM in each case. Moreover, the TGI in [8] and in assay [10] was more than 100 µM in each case.

On to `O=C(Nc1ccc(-c2nc3cc4ccccc4cc3[nH]2)cc1)c1cccc(Br)c1`, for which the GI50 in [1] is 20.7 µM; in [2] it was 15.8 µM; in assay [3] it was 3.43 µM; in assay [4], 5.48 µM; in [5], 6.58 µM; in assay [6], 12.1 µM. Moreover, the GI50 in assay [7] is 3.03 µM; in assay [8], 12.6 µM; in [10], 7.28 µM. The TGI in assay [1] amounted to 48.1 µM; in [2] it was 30.5 µM; in [3], 18.9 µM; in [4], 18 µM; in [5] it was 21.4 µM; in assay [6], 31.8 µM. In addition, the results for the TGI in assay [7], in [8] and in assay [10] were 19.1 µM, 28.5 µM and 20.4 µM, respectively.

In the case of `CCCCCCCCCCCCN1C(C)=CS/C1=C\C=C\c1scc(C)[n+]1CCCCCCCCCCCC`, the GI50 is 1.53 µM in [1]; 1.1 µM in assay [2]; 2.17 µM in [4]; 1.7 µM in assay [6]; 2.38 µM in assay [7]; 1.54 µM in assay [8]. The GI50 in assay [10] is 3.51 µM. The TGI in [1] stood at 5.35 µM; in assay [2] it was 3.41 µM; in [4], 7.37 µM; in assay [6], 5.11 µM; in [7] it was 10.5 µM; in [8], 7.17 µM. Moreover, the TGI in assay [10] is 28.7 µM.

Turning to `O=C(Nc1ccc(S(=O)(=O)Nc2nccs2)cc1)c1cccnc1Nc1cccc(Cl)c1`, the GI50 in assay [1] was 16.5 µM; in assay [2], 6.62 µM; in assay [3], 18 µM; in assay [4], 17.9 µM; in [5], 11.3 µM; in [6], 11 µM. The GI50 in [7] was 15.2 µM; in assay [8], 16 µM; in assay [10], 16.2 µM. In addition, the TGI came to 43.5 µM in assay [1]; 20.3 µM in assay [2]; 48.4 µM in assay [3]; 39.9 µM in assay [4]; 23.5 µM in assay [5]; 28.4 µM in [6]. For the same compound, the figures for the TGI in [7], in assay [8] and in assay [10] were 30.6 µM, 39.3 µM and 31.3 µM, respectively.
